This is an account of results in publication doi:10.1101/2024.08.13.607785v1 (biorxiv, 2024).

Experiment in all cases: biochemical
Test [1] deals with T1, Cyclin-dependent kinase 13 ; CDK13 ; Q14004 (Homo sapiens, UniProt Q14004). More on the design: species or system mixed lysate of K562, MV4-11, THP-1, NCI-H1155.
Test [2] concerns the target Isoform 4 of TRAF2 and NCK-interacting protein kinase ; TNIK ; Q9UKE5-4 (Homo sapiens, UniProt Q9UKE5). Set-up: species or system mixed lysate of K562, MV4-11, THP-1, NCI-H1155.
Test [3] addresses T2, Cyclin-dependent kinase 19 ; CDK19 ; Q9BWU1 (Homo sapiens, UniProt Q9BWU1). Set-up: species or system mixed lysate of K562, MV4-11, THP-1, NCI-H1155.
Test [4] addresses T1, Cyclin-dependent kinase 13 ; CDK13 ; Q14004. More on the design: species or system human cell line lysate.
Test [5] deals with Mast/stem cell growth factor receptor Kit ; KIT ; P10721 (Homo sapiens, UniProt P10721). More on the design: species or system human cell line lysate.
The target of test [6] is Cyclin-dependent kinase 4 ; CDK4 ; P11802 (Homo sapiens, UniProt P11802). More on the design: species or system human cell line lysate.
The target in test [7] is Cyclin-dependent kinase 8 ; CDK8 ; P49336 (Homo sapiens, UniProt P49336). More on the design: species or system human cell line lysate.
For test [8], the target named is T3, Cyclin-dependent kinase-like 5 ; CDKL5 ; O76039 (Homo sapiens, UniProt O76039).
T3 sequence (O76039 1-960): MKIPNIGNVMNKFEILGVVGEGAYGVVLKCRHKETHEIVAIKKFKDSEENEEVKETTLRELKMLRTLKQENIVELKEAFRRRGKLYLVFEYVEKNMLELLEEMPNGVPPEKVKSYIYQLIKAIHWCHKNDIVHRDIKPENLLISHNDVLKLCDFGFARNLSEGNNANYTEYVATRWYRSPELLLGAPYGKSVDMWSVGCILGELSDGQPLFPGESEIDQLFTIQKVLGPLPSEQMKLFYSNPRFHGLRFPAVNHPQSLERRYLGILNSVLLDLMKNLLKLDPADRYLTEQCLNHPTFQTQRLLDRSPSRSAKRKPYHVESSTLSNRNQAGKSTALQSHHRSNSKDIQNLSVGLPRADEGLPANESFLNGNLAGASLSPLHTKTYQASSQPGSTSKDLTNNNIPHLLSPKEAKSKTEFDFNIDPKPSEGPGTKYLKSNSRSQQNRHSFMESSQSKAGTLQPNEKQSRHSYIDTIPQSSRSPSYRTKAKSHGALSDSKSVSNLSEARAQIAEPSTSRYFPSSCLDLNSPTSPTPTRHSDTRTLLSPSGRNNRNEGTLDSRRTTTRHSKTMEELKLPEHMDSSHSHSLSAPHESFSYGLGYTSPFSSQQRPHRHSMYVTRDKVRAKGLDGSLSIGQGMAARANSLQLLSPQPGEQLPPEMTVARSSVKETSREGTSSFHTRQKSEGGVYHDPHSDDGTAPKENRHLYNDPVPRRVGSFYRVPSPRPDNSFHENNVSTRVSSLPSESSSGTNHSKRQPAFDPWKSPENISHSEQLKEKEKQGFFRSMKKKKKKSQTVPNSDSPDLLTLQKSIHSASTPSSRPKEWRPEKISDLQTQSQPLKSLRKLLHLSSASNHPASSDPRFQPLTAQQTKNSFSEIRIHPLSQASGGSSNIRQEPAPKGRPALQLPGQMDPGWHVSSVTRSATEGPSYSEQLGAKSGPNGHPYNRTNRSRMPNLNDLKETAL
Set-up: species or system human cell line lysate.

The target of test [9] is T4, Interleukin-1 receptor-associated kinase 3 ; IRAK3 ; Q9Y616 (Homo sapiens, UniProt Q9Y616).
T4 sequence (Q9Y616 1-596): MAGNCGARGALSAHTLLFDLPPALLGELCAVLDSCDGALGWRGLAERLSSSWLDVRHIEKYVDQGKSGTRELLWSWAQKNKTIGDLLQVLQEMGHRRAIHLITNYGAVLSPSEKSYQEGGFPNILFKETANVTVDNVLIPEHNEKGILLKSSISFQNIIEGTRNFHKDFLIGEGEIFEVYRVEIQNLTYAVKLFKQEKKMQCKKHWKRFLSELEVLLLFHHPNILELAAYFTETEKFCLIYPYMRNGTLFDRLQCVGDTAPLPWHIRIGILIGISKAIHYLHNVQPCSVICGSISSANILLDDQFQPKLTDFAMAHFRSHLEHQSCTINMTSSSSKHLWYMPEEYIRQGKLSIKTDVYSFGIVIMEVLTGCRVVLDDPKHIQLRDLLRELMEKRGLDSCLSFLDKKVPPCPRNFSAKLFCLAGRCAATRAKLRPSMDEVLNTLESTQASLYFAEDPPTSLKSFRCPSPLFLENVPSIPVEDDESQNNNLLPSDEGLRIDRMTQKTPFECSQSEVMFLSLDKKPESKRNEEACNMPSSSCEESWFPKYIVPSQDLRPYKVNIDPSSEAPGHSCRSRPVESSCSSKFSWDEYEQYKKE
More on the design: species or system human cell line lysate.

In test [10] the target is Non-receptor tyrosine-protein kinase TYK2 ; TYK2 ; P29597 (Homo sapiens, UniProt P29597). More on the design: species or system human cell line lysate.
Non-receptor tyrosine-protein kinase TYK2 ; TYK2 ; P29597, sequence (P29597 whole entry): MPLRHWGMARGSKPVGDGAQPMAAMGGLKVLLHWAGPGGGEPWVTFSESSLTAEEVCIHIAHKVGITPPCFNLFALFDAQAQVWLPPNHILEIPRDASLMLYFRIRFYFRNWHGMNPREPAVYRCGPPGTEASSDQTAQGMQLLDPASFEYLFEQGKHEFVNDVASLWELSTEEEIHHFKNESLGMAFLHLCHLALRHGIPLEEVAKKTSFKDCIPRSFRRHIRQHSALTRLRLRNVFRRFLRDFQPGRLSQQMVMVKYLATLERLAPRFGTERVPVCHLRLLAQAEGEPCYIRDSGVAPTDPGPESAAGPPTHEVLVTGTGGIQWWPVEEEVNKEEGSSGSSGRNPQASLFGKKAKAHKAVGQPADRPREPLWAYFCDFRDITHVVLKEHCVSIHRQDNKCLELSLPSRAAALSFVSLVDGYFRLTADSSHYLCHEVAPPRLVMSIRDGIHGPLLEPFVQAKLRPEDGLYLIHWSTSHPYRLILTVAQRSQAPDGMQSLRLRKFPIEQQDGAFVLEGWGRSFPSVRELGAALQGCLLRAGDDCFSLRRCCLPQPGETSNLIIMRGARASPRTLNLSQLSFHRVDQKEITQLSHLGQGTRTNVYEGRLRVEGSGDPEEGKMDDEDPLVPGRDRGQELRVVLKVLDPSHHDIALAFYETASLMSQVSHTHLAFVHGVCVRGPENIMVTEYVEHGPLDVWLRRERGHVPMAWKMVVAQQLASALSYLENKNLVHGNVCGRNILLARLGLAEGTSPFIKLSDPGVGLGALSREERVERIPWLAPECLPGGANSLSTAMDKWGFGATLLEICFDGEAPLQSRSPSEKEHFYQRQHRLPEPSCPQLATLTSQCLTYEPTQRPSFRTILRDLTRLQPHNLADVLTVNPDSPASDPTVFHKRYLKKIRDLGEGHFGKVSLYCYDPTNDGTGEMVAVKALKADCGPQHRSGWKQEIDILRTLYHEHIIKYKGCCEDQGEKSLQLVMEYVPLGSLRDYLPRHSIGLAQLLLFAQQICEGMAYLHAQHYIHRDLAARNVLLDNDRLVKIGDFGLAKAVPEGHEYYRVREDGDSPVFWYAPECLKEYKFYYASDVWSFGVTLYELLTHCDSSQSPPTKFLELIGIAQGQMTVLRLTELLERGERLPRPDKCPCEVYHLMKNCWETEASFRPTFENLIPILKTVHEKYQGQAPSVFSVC
Test [11] deals with T2, Cyclin-dependent kinase 19 ; CDK19 ; Q9BWU1. More on the design: species or system human cell line lysate.
Test [12] deals with Calcium/calmodulin-dependent protein kinase kinase 1 ; CAMKK1 ; Q8N5S9 (Homo sapiens, UniProt Q8N5S9). Set-up: species or system human cell line lysate.
Calcium/calmodulin-dependent protein kinase kinase 1 ; CAMKK1 ; Q8N5S9, sequence (Q8N5S9 whole entry, one chain of several): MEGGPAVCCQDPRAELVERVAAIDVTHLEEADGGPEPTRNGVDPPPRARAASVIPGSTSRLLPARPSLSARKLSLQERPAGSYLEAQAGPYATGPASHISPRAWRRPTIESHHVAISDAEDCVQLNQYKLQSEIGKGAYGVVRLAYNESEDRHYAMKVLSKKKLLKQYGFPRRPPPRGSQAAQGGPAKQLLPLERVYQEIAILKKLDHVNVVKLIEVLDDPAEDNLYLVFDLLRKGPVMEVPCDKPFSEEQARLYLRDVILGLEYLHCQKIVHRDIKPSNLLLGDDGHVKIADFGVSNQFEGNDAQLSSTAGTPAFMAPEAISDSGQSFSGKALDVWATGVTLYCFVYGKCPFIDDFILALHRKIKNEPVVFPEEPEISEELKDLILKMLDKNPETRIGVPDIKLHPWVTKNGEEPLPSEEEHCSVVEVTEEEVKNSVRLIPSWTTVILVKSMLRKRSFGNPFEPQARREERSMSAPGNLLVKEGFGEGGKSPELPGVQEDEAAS
[13] abbreviates: read-out: BAY-1251152 (10 µM) / %Intensity relative to DMSO.
Setting [14] is: read-out: BAY-1143572 (10 µM) / %Intensity relative to DMSO.

Like-named read-outs stand apart in the source and are kept apart here. Some results are limits rather than exact numbers.

T2 sequence (Q9BWU1 whole entry, one chain of several): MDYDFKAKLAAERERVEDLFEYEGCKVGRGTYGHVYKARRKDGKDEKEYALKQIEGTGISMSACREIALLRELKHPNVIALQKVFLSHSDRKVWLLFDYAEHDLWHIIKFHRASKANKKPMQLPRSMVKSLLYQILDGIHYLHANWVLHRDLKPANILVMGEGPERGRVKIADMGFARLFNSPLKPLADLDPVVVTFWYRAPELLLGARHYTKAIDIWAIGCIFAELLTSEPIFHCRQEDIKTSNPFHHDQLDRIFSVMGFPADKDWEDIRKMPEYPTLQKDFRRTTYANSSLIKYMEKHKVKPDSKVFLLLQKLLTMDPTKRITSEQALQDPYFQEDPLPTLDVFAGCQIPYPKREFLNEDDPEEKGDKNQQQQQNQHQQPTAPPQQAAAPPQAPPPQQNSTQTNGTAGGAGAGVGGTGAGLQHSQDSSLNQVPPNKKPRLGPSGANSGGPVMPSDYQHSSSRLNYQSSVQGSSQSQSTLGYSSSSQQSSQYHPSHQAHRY
T1 sequence (Q14004 whole entry, canonical isoform, one chain of several): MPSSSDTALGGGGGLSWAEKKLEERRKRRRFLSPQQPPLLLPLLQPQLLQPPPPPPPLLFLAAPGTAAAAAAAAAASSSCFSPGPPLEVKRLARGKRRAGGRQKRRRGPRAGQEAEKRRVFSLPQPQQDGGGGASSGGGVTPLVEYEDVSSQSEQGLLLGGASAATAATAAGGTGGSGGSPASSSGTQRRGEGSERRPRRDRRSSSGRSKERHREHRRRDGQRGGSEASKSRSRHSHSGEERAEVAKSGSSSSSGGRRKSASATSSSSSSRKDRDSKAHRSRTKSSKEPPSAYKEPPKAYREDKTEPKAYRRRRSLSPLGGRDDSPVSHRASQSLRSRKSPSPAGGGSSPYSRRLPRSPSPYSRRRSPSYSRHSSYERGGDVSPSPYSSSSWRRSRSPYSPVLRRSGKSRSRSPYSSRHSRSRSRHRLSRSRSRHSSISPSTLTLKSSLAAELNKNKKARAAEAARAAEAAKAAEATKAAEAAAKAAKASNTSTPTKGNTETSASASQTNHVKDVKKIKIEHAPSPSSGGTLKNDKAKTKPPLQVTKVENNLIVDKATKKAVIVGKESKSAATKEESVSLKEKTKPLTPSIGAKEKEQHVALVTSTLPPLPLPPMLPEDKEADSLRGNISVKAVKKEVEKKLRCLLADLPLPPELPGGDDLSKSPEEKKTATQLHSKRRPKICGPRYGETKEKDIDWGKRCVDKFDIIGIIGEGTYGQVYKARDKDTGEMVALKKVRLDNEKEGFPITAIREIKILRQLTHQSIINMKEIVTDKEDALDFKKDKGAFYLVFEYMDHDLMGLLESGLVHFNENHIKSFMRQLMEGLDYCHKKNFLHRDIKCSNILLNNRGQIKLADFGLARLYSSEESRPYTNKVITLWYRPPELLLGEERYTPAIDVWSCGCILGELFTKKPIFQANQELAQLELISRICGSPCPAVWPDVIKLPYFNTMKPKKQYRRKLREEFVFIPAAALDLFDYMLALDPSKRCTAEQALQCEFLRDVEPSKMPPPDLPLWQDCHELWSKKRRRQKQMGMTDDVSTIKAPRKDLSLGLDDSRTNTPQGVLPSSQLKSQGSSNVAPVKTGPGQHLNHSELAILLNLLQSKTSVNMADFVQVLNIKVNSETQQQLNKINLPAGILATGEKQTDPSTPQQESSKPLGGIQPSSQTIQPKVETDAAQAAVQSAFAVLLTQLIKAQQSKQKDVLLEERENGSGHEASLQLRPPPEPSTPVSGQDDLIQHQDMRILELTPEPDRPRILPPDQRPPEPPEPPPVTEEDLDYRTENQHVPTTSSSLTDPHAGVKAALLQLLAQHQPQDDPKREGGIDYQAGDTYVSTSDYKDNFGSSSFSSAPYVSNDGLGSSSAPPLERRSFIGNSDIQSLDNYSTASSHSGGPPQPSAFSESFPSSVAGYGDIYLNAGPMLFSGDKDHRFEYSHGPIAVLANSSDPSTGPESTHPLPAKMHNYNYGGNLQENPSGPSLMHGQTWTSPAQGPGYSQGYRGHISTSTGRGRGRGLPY
Isoform 4 of TRAF2 and NCK-interacting protein kinase ; TNIK ; Q9UKE5-4, sequence (Q9UKE5 whole entry, canonical isoform, one chain of several): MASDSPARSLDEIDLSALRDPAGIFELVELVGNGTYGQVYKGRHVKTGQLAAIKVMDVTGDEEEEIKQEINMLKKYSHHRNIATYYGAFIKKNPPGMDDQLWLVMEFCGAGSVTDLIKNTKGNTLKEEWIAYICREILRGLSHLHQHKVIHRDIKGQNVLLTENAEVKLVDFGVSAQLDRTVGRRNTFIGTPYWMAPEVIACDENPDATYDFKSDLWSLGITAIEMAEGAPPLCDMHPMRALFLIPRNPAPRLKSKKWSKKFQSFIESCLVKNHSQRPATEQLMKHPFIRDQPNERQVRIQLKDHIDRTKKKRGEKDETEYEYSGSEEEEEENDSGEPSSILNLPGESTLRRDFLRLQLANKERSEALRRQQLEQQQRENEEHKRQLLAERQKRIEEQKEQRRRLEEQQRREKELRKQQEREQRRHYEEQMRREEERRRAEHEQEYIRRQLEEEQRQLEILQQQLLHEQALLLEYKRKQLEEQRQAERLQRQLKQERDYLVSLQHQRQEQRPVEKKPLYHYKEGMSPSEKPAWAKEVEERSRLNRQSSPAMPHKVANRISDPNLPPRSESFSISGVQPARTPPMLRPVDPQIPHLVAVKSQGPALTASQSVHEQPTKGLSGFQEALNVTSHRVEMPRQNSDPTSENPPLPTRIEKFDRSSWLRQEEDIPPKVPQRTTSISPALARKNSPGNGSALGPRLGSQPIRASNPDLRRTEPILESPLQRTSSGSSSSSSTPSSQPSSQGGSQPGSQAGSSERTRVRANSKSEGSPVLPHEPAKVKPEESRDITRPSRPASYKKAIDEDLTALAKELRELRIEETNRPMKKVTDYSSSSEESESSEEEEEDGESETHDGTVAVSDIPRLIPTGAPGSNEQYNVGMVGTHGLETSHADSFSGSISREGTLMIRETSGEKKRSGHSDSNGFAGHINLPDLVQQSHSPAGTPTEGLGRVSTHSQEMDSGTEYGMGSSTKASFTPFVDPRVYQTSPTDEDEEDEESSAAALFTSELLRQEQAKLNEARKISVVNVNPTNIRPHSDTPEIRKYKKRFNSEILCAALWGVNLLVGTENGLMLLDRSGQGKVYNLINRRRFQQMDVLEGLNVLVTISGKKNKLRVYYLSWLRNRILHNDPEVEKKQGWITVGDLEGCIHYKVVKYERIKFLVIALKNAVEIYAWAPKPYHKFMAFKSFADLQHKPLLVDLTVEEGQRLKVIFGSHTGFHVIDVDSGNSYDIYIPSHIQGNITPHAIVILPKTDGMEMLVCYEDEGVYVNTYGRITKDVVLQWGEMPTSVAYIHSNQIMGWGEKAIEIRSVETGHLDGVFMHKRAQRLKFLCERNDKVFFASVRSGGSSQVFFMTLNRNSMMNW

For `COc1cc(F)ccc1-c1cc(Nc2cc(CS(C)(=N)=O)ccn2)ncc1F` (stereo not drawn) [BAY-1251152], the remaining activity at 10 µM in [1] (setting [13]) is 58.8%; in [2] (setting [13]) it was 37.2%; in test [3] (setting [13]), 90.5%. Besides, the half-inhibitory concentration (IC50) in [4], in test [5], in [6], in test [7], in test [8] and in [9] was above 10 µM throughout. Moreover, the values for the IC50 in test [10], in [11] and in test [12] were above 10 µM, above 10 µM and 0.305 µM, respectively.

As for `COc1cc(F)ccc1-c1ncnc(Nc2cccc(C[S@](C)(=N)=O)c2)n1` [BAY-1143572], the values for the remaining activity at 10 µM in test [1] (setting [14]), in test [2] (setting [14]) and in test [3] (setting [14]) were 89.2%, 78.3% and 97.8%, respectively. Also, the IC50 (in general, the concentration that gives 50% inhibition) in test [4] is above 10 µM; in [5], 0.649 µM; in test [6], above 10 µM; in [7], above 10 µM; in test [8], 3.36 µM; in test [9] it was 2.98 µM. Besides, the IC50 in test [10] was 2.99 µM; in [11] it was above 10 µM; in test [12], 0.379 µM.
